The source of these data is patent publication US10189785B2, “Heterocyclic compound” (TAKEDA PHARMACEUTICAL COMPANY LIMITED, priority 2015, dated 2019).

Assay [1] concerns the target T1, SPT (SPT2-expressing membrane fraction: human SPT1, human SPT2 and human ssSPTa) (Homo sapiens, UniProt O15269+O15270).
T1 construct: Full-length human SPT1, human SPT2 and human ssSPTa used; made in house; host or cells: FreeStyle 293 cells (pcDNA3.1 vectors, cotransfection); crude membrane fraction used
T1 sequence (O15269 1-473): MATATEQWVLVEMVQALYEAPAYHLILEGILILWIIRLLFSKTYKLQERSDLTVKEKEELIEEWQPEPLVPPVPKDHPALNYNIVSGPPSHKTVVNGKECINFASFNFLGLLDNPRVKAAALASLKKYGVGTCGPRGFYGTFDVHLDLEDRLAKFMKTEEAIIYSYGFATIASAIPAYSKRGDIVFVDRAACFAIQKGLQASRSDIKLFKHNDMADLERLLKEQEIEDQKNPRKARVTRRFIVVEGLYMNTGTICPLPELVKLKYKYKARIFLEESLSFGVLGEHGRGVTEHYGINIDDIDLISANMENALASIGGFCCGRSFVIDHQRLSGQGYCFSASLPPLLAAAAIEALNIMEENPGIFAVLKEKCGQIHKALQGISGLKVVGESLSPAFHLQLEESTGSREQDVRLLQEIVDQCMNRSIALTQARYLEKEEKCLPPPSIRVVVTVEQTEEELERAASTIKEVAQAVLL
T1 sequence (O15270 1-562): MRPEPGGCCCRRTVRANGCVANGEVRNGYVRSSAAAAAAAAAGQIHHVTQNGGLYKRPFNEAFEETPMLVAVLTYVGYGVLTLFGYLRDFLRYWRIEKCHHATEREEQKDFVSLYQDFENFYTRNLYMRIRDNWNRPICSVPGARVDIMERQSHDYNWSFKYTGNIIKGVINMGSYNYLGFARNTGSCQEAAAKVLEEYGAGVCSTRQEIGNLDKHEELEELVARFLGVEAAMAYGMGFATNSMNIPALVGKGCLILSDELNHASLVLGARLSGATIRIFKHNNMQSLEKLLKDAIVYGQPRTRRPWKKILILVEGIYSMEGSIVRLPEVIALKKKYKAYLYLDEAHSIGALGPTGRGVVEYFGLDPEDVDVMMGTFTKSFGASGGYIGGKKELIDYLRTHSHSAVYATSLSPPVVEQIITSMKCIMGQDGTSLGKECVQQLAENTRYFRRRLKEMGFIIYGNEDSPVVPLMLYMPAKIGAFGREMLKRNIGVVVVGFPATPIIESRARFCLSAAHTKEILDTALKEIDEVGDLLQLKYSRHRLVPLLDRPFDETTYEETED
T1 sequence (Q969W0 1-71 partner): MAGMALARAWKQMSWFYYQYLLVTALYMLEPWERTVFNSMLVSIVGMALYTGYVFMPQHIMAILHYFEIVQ
The experiment in a line: SPT enzyme inhibition test (Test Example 1). The class given is biochemical. The following applies: read-out: Rate of inhibition (%) at 1 μM. As to the method:
After culture for 3 days, the cells were recovered and frozen at −80° C. to obtain expressing cells. The frozen cells were suspended in a 50 mM Hepes buffer (pH 7.5) containing 250 mM sucrose, 5 mM ethylenediaminetetraacetic acid (EDTA), 5 mM dithiothreitol (DTT) and Complete, EDTA-free (Roche Applied Science, Penzberg, Upper Bavaria, Germany). The cells were disrupted (on ice, 20,000 rpm, 20 sec×2) using POLYTORON (Central Scientific Commerce, Inc.). After centrifugation at 2000 rpm (850×g) for 10 minutes, the supernatant was recovered. Subsequently, the supernatant was centrifuged at 40,000 rpm (186,010×g) for 60 minutes, and the supernatant was discarded. The pellets were suspended in a 50 mM Hepes buffer (pH 7.5) containing 5 mM EDTA, 5 mM DTT and Complete, EDTA-free, passed through a 40-μm cell strainer and stored at −80° C. The resultant was used as a SPT2-expressing membrane fraction. The protein concentration was determined using CBB Protein Assay with bovine serum albumin used as standards.
5 μL of each test compound was mixed with 10 μL of the 100 μg/mL SPT2-expressing membrane fraction using an assay buffer (100 mM Hepes (pH 8.0) containing 2.5 mM EDTA, 5 mM DTT and 0.01% fatty acid-free bovine serum albumin), and the mixture was left standing at room temperature for 60 minutes. Subsequently, 5 μL of a substrate solution containing 2 mM L-serine and 20 μM palmitoyl CoA was added thereto, and an enzyme reaction was carried out in a 384-well plate using 20 μL in total of the reaction system. After reaction at room temperature for 15 minutes, the reaction was terminated by the addition of 20 μL of a 2% aqueous formic acid solution. Subsequently, 40 μL of acetonitrile containing 600 nM C17-sphinganine (Avanti Polar Lipids, Inc., Alabaster, Ala., U.S.) was added thereto as an internal standard. The reaction sample was subjected to on-line solid-layer extraction using RapidFire 300 (Agilent Technologies Inc., Santa Clara, Calif., U.S.). […] Mass chromatograms were obtained using Analyst software (version 1.5.0, AB SCIEX). Their mass chromatogram areas were respectively calculated, and the rate of inhibition (%) by the test compound was calculated using an area ratio (the value of the reaction product was divided by the value of the internal standard).

For assay [2], the system named is lung adenocarcinoma cell line HCC4006. The experiment in a line: HCC4006 cell growth inhibition test (Test Example 2). The format is cell-based. The following applies: Homo sapiens, 120 h; 1 μM test compound; HCC4006 cells, culture for 5 days, CellTiter-Glo; read-out: Rate of inhibition (%) at 1 μM. As to the method:
A lung adenocarcinoma cell line HCC4006 (ATCC) was cultured using an RPMI-1640 medium (Wako Pure Chemical Industries, Ltd.) containing 10% fetal bovine serum and penicillin/streptomycin. 250 cells per well were inoculated into 40 μL of a medium in a 384-well culture plate. On the next day, 10 μL of each test compound was added to the cells. After culture for 5 days, the medium was discarded, and 30 μL of CellTiter-Glo Luminescent Cell Viability Assay solution (Promega Corp., Fitchburg, Wis., U.S.) was added to each well. Light emission signals were measured using EnVision (PerkinElmer, Inc., Waltham, Mass., U.S.).
The rate of inhibition (%) by the test compound was calculated according to the following expression: Rate of inhibition (%)=(1−(Count of the test compound−Blank)/(Control−Blank))×100
In the above expression, a count under compound non-addition conditions was indicated as a control, and a count under cell-free conditions was indicated as a blank.
For orientation: Cellular ATP, detected with luciferase, serves as a proxy for viable cell number.

By inhibition is commonly meant the drop in the measured response relative to a control, in per cent. `COc1ccc(C(=O)N2CC[C@@H](NC(=O)c3ccccc3OC(F)(F)F)[C@@H](N3CCCCC3)C2)cc1OC` (relative stereo) [Example 55B, N-(cis-1′-(3,4-Dimethoxybenzoyl)-1,3′-bipiperidin-4′-yl)-2-(trifluoromethoxy)benzamide]: the inhibition at 1 µM in assay [1] turned out to be 95%. Same read-out and setting: as for `COc1cc(C(=O)N2CC[C@@H](NC(=O)c3ccccc3OC(F)(F)F)[C@H](N3CCCCC3)C2)cnc1OC` (relative stereo) [Example 253B, N-(trans-1′-((5,6-Dimethoxypyridin-3-yl)carbonyl)-1,3′-bipiperidin-4′-yl)-2-(trifluoromethoxy)benzamide], the figure is 97%.

Take `COc1ccc(C(=O)N2CC[C@@H](NC(=O)c3ccccc3Cl)[C@H](c3sccc3C)C2)cc1OC` (relative stereo) [Example 270B, 2-chloro-N-(trans-1-(3,4-dimethoxybenzoyl)-3-(3-methyl-2-thienyl)piperidin-4-yl)benzamide]: the inhibition at 1 µM in assay [1] was 89%. For the compound `COc1cc(C(=O)N2CC[C@@H](NC(=O)c3ccccc3OC(F)(F)F)[C@H](n3cccn3)C2)cnc1OC` (relative stereo) [Example 276B, N-(trans-1-((5,6-dimethoxypyridin-3-yl)carbonyl)-3-(1H-pyrazol-1-yl)piperidin-4-yl)-2-(trifluoromethoxy)benzamide], the inhibition at 1 µM in assay [1] was found to be 82%.

As to `COc1ccc(C(=O)N2CCC(NC(=O)c3ccccc3Cl)c3nn(C)cc32)cc1OC` (stereo not shown) [Example 1A, 2-Chloro-N-(4-(3,4-dimethoxybenzoyl)-2-methyl-4,5,6,7-tetrahydro-2H-pyrazolo[4,3-b]pyridin-7-yl)benzamide], the inhibition at 1 µM in assay [1] worked out at 91%. For `COc1ccc(C(=O)N2CCC(NC(=O)c3ccccc3Cl)c3c2cnn3C)cc1OC` (stereo not shown) [Example 2A, 2-Chloro-N-(4-(3,4-dimethoxybenzoyl)-1-methyl-4,5,6,7-tetrahydro-1H-pyrazolo[4,3-b]pyridin-7-yl)benzamide], the inhibition at 1 µM in assay [2] worked out at 36%. `COc1ccc(C(=O)N2CC[C@@H](NC(=O)c3ccccc3Cl)[C@@H](c3ccccc3)C2)cc1OC` [Example 2B, 2-chloro-N-((3S,4R)-1-(3,4-dimethoxybenzoyl)-3-phenylpiperidin-4-yl)benzamide]: the inhibition at 1 µM in assay [2] was determined as 55%. Still for that read-out and setting: the figure for `COc1ccc(C(=O)N2CC[C@@H](NC(=O)c3ccccc3Cl)[C@H](c3ccccc3)C2)cc1OC` [Example 3B, 2-chloro-N-((3R,4R)-1-(3,4-dimethoxybenzoyl)-3-phenylpiperidin-4-yl)benzamide] is 44%. As to `COc1ccc(C(=O)N2CCC(NC(=O)c3ccccc3Cl)c3noc(C)c32)cc1OC` (stereo not shown) [Example 17A, 2-Chloro-N-[4-(3,4-dimethoxybenzoyl)-3-methyl-4,5,6,7-tetrahydro[1,2]oxazolo[4,3-b]pyridin-7-yl]benzamide], in assay [1], the inhibition at 1 µM worked out at 84%. For the compound `COc1ccc(C(=O)N2CCC(NC(=O)c3ccccc3Cl)c3nscc32)cc1OC` (stereo not shown) [Example 30A, 2-Chloro-N-[4-(3,4-dimethoxybenzoyl)-4,5,6,7-tetrahydro[1,2]thiazolo[4,3-b]pyridin-7-yl]benzamide], the inhibition at 1 µM in assay [1] was found to be 93%. With `COc1ccc(C(=O)N2CCC(NC(=O)c3ccccc3Cl)c3c2cnn3C(C)C)cc1OC` (stereo not shown) [Example 36A, 2-Chloro-N-(4-(3,4-dimethoxybenzoyl)-1-isopropyl-4,5,6,7-tetrahydro-1H-pyrazolo[4,3-b]pyridin-7-yl)benzamide], the inhibition at 1 µM in assay [2] is 47%. As to `COc1ccc(C(=O)N2CCC(NC(=O)c3sccc3Cl)c3c2cnn3C)cc1OC` (stereo not shown) [Example 64A, 3-chloro-N-(4-(3,4-dimethoxybenzoyl)-1-methyl-4,5,6,7-tetrahydro-1H-pyrazolo[4,3-b]pyridin-7-yl)thiophene-2-carboxamide], in assay [1], the inhibition at 1 µM amounted to 82%. Still for that read-out and setting: the figure for `COc1cc(C(=O)N2CC[C@@H](NC(=O)c3ncccc3C(F)(F)F)[C@@H](c3ccccc3)C2)n(C)n1` [Example 72B, N-((3S,4R)-1-((3-methoxy-1-methyl-1H-pyrazol-5-yl)carbonyl)-3-phenylpiperidin-4-yl)-3-(trifluoromethyl)pyridine-2-carboxamide] is 94%. On the same count and under the same terms, the figure for `COc1ccc(C(=O)N2CCC(NC(=O)c3cnccc3C(F)(F)F)c3c2cnn3C)cc1OC` (stereo not shown) [Example 91A, N-(4-(3,4-dimethoxybenzoyl)-1-methyl-4,5,6,7-tetrahydro-1H-pyrazolo[4,3-b]pyridin-7-yl)-4-(trifluoromethyl)nicotinamide] is 94%.

As for `COc1ccc(C(=O)N2CCC(NC(=O)c3cccnc3C(F)(F)F)c3c2cnn3C)cc1OC` (stereo not shown) [Example 103A, N-(4-(3,4-dimethoxybenzoyl)-1-methyl-4,5,6,7-tetrahydro-1H-pyrazolo[4,3-b]pyridin-7-yl)-2-(trifluoromethyl)nicotinamide], in assay [1], the inhibition at 1 µM was determined as 95%. `COc1ccc(C(=O)N2CCC(NC(=O)c3ccccc3Cl)c3c(C)nsc32)cc1OC` (stereo not shown) [Example 117A, 2-Chloro-N-(7-(3,4-dimethoxybenzoyl)-3-methyl-4,5,6,7-tetrahydro[1,2]thiazolo[5,4-b]pyridin-4-yl)benzamide]: the inhibition at 1 µM in assay [1] turned out to be 84%.

On to `COc1cc(C(=O)N2CC[C@@H](NC(=O)c3ccnn3C)[C@@H](c3ccccc3)C2)cnc1OC` [Example 144B, N-((3S,4R)-1-((5,6-dimethoxypyridin-3-yl)carbonyl)-3-phenylpiperidin-4-yl)-1-methyl-1H-pyrazole-5-carboxamide], for which the inhibition at 1 µM in assay [1] was determined as 98%. The same measure, in the same setting: the figure for `COc1ccc(C(=O)N2CCC(NC(=O)c3ccccc3Cl)c3c(C)nn(C)c32)cc1OC` (stereo not shown) [Example 172A, 2-Chloro-N-(7-(3,4-dimethoxybenzoyl)-1,3-dimethyl-4,5,6,7-tetrahydro-1H-pyrazolo[3,4-b]pyridin-4-yl)benzamide] is 93%; for `COc1ccc(C(=O)N2CCC(NC(=O)c3ccccc3Cl)c3ccc(Cl)nc32)cc1OC` (stereo not shown) [Example 217A, 2-Chloro-N-(7-chloro-1-(3,4-dimethoxybenzoyl)-1,2,3,4-tetrahydro-1,8-naphthyridin-4-yl)benzamide] it is 102%.
